Test system: Her2
Experiment: IC50 range for inhibition of Her2 degradation (Table 8)
Assay type: cell-based
Details: Homo sapiens
Procedure: Human high-Her2 breast carcinoma BT474 (HTB-20), SK-BR-3 (HTB-30) and MCF-7 breast carcinoma (HTB-22) from American Type Culture Collection, VA, USA were grown in Dulbecco's modified Eagle's medium with 4 mM L-glutamine and antibiotics (100 IU/ml penicillin and 100 ug/ml streptomycine; GibcoBRL). To obtain exponential cell growth, cells were trypsinized, counted and seeded at a cell density of 0.5×10^6 cells/ml regularly, every 3 days. All experiments were performed on day 1 after cell passage. […]
After treatment with a compound of the invention, cells were washed twice with 1×PBS/1% FBS, and then stained with anti-Her2-FITC (#340553, BD) for 30 min at 4° C. Cells were then washed three times in FACS buffer before the fixation in 0.5 ml 1% paraformadehydrede. Data was acquired on a FACSCalibur system. Isotype-matched controls were used to establish the non-specific staining of samples and to set the fluorescent markers. A total 10,000 events were recorded from each sample. Data were analysed by using CellQuest software (BD Biosciences).

IC50 [µM] | Structure (SMILES)
3 to 10 | COCCOc1ccc(-n2c(S)nnc2-c2ccc(O)cc2O)c2ccccc12 [Compound 2, 3-(2,4-Dihydroxyphenyl)-4-[4-(2-methoxyethoxy)-naphthalen-1-yl]-5-mercapto-triazole]
3 to 10 | CCOc1ccc2c(-n3c(S)nnc3-c3ccc(O)cc3O)cccc2c1 [Compound 6]
3 to 10 | CCCOc1ccc2c(-n3c(S)nnc3-c3ccc(O)cc3O)cccc2c1 [Compound 7]
< 3 | CCc1cc(-c2nnc(S)n2-c2cccc3c(OC)cccc23)c(O)cc1O [Compound 8, 3-(2,4-Dihydroxy-5-ethyl-phenyl)-4-(5-methoxy-naphthalen-1-yl)-5-mercapto-triazole]
3 to 10 | CC(C)Oc1ccc2c(-n3c(S)nnc3-c3ccc(O)cc3O)cccc2c1 [Compound 9]
< 3 | CCn1ccc2c(-n3c(S)nnc3-c3ccc(O)cc3O)cccc21 [Compound 13, 3-(2,4-Dihydroxyphenyl)-4-(1-ethyl-indol-4-yl)-5-mercapto-triazole]
3 to 10 | Oc1ccc(-c2nnc(S)n2-c2cccc3c2OCCO3)c(O)c1 [Compound 14, 3-(2,4-Dihydroxyphenyl)-4-(2,3-dihydro-benzo[1,4]dioxin-5-yl)-5-mercapto-triazole]
10 to 100 | COc1cccc(-n2c(S)nnc2-c2ccc(O)cc2O)c1 [Compound 21, 3-(2,4-Dihydroxyphenyl)-4-(3-methoxyphenyl)-5-mercapto-triazole]
10 to 100 | COc1ccc(-n2c(S)nnc2-c2ccc(O)cc2O)cc1 [Compound 22, 3-(2,4-Dihydroxyphenyl)-4-(4-methoxyphenyl)-5-mercapto-triazole]
3 to 10 | Cc1ccc(-n2c(S)nnc2-c2ccc(O)cc2O)c(C)c1 [Compound 28, 3-(2,4-Dihydroxyphenyl)-4-(2,4-dimethyl-phenyl)-5-mercapto-triazole]
10 to 100 | Cc1cc(C)cc(-n2c(S)nnc2-c2ccc(O)cc2O)c1 [Compound 30]
3 to 10 | Cc1cccc(-n2c(S)nnc2-c2ccc(O)cc2O)c1C [Compound 34, 3-(2,4-Dihydroxyphenyl)-4-(2,3-dimethylphenyl)-5-mercapto-triazole]
3 to 10 | Oc1ccc(-c2nnc(S)n2-c2ccc3c4c(cccc24)CC3)c(O)c1 [Compound 36, 3-(2,4-Dihydroxyphenyl)-4-(acenaphthalen-5-yl)-5-mercapto-triazole]
3 to 10 | Oc1ccc(-c2nnc(S)n2-c2cccc(Cl)c2Cl)c(O)c1 [Compound 38, 3-(2,4-Dihydroxyphenyl)-4-(2,3-dichlorophenyl)-5-mercapto-triazole]
< 3 | COc1cccc2c(-n3c(S)nnc3-c3ccc(O)cc3O)cccc12 [Compound 39, 3-(2,4-Dihydroxyphenyl)-4-(5-methoxynaphthalen-1-yl)-5-mercapto-triazole]
3 to 10 | Oc1ccc(-c2nnc(S)n2-c2cccc3c2CCCC3)c(O)c1 [Compound 42, 3-(2,4-Dihydroxyphenyl)-4-(1,2,3,4-tetrahydronaphthalen-5-yl)-5-mercapto-triazole]
3 to 10 | Oc1ccc(-c2nnc(S)n2-c2ccc(Cl)c3ccccc23)c(O)c1 [Compound 48, 3-(2,4-Dihydroxyphenyl)-4-(4-chloronaphthalen-1-yl)-5-mercapto-triazole]
10 to 100 | Cc1cc(-n2c(S)nnc2-c2ccc(O)cc2O)c2ccccc2n1 [Compound 51, 3-(2,4-Dihydroxyphenyl)-4-(2-methyl-quinolin-4-yl)-5-mercapto-triazole]
10 to 100 | CCn1cc(-c2nnc(S)n2-c2cccc3ccccc23)c(O)cc1=O [Compound 59, 3-(1-ethyl-4-hydroxy-6-oxo-1,6-dihydro-pyridin-3-yl)-4-(naphthalen-1-yl)-5-mercapto-triazole]
10 to 100 | Cn1cc(-c2nnc(S)n2-c2cccc3ccccc23)c(O)cc1=O [Compound 60]
10 to 100 | CC(C)(C)c1cc(-n2c(S)nnc2-c2ccc(O)cc2O)cc(C(C)(C)C)c1 [Compound 61, 3-(2,4-Dihydroxy-phenyl)-4-(3,5-di-tert-butylphenyl)-5-mercapto-triazole]
10 to 100 | Oc1nc(O)c(-c2nnc(S)n2-c2cccc3ccccc23)cc1F [Compound 62, 3-(2,6-Dihydroxy5-fluoro-pyridin-3-yl) 4-(naphthalen-1-yl)-5-mercapto-triazole]

IC50 [µM] | Structure (SMILES)
< 3 | Cc1cc(-c2nnc(S)n2-c2cccc3ccccc23)c(O)cc1O [Compound 63, 3-(2,4-Dihydroxy-5-methyl-phenyl)-4-(naphthalene-1-yl)-5-mercapto-triazole]
3 to 10 | O=C(c1ccccc1)c1cccc(-n2c(S)nnc2-c2ccc(O)cc2O)c1 [Compound 64, 3-[2,4-Dihydroxy-phenyl]-4-(3-benzoylphenyl)-5-mercapto-triazole]
3 to 10 | Oc1ccc(-c2nnc(S)n2-c2cccc3cnccc23)c(O)c1 [Compound 70, 3-(2,4-Dihydroxy-phenyl)-4-(isoquinolin-5-yl)-5-mercapto-triazole]
< 3 | CCc1cc(-c2nnc(S)n2-c2ccc(OC)c3ccccc23)c(O)cc1O [Compound 76, 3-(2,4-Dihydroxy-5-ethyl-phenyl)-4-(4-methoxy-naphthalen-1-yl)-5-mercapto-triazole]
< 3 | CCc1cc(-c2nnc(S)n2-c2cccc3cc(OC)ccc23)c(O)cc1O [Compound 77, 3-(2,4-Dihydroxy-5-ethyl-phenyl)-4-(6-methoxy-naphthalin-1-yl)-5-mercapto-triazole]
< 3 | CCc1cc(-c2nnc(S)n2-c2ccc(OC)c(C)c2C)c(O)cc1O [Compound 79, 3-(2,4-Dihydroxy-5-ethyl-phenyl)-4-(2,3-dimethy-4-methoxy-phenyl)-5-mercapto-triazole]
< 3 | Oc1ccc(-c2nnc(S)n2-c2ccc(O)c3ccccc23)c(O)c1 [Compound 87, 3-(2,4-Dihydroxyphenyl)-4-(4-hydroxy-naphthalen-1-yl)-5-mercapto-triazole]
< 3 | CC(C)n1ccc2c(-n3c(S)nnc3-c3ccc(O)cc3O)cccc21 [Compound 88, 3-(2,4-Dihydroxyphenyl)-4-(1-isopropyl-indol-4-yl)-5-mercapto-triazole]
3 to 10 | COc1cccc(-n2c(S)nnc2-c2ccc(O)cc2O)c1OC [Compound 93, 3-(2,4-Dihydroxy-phenyl)-4-(2,3-dimethoxy-phenyl)-5-mercapto-triazole]
< 3 | Oc1ccc(-c2nnc(S)n2-c2cccc3[nH]ccc23)c(O)c1 [Compound 95, 3-(2,4-Dihydroxy-phenyl)-4-(indol-4-yl)-5-mercapto-triazole]
< 3 | COCCn1ccc2c(-n3c(S)nnc3-c3ccc(O)cc3O)cccc21 [Compound 96]
10 to 100 | [O-][n+]1ccc(-c2nnc(S)n2-c2cccc3ccccc23)c(O)c1 [Compound 98, 3-(1-Oxo-3-hydroxy-pyridin-4-yl)-4-(naphthalen-1-yl)-5-mercapto-triazole]
10 to 100 | O=C(O)c1cc(O)c(-c2nnc(S)n2-c2cccc3ccccc23)cc1O [Compound 99, 3-(2,5-Dihydroxy-4-carboxy)-4-(naphthalen-1-yl)-5-mercapto-triazole]
< 3 | CCc1cc(-c2nnc(S)n2-c2cccc3c2ccn3C(C)C)c(O)cc1O [Compound 100, 3-(2,4-Dihydroxy-5-ethyl-phenyl)-4-(1-isopropyl-indol-4-yl)-5-mercapto-triazole]
10 to 100 | CCc1cc(-c2nnc(S)n2-c2cccc3c2ncn3CC)c(O)cc1O [Compound 102, 3-(2,4-Dihydroxy-5-ethyl-phenyl)-4-(1-ethyl-benzoimidazol-4-yl)-5-mercapto-triazole]
< 3 | CCc1cc(-c2nnc(S)n2-c2ccc3c(c2)c(C)c(C)n3C)c(O)cc1O [Compound 103, 3-(2,4-Dihydroxy-5-ethyl-phenyl)-4-(1,2,3-trimethyl-indol-5-yl)-5-mercapto-triazole]
10 to 100 | OCc1cc(O)c(-c2nnc(S)n2-c2cccc3ccccc23)cc1O [Compound 104, 3-(2,5-Dihydroxy-4-hydroxymethyl-phenyl)-4-(naphthalen-1-yl)-5-mercapto-triazole]
< 3 | COc1cc(-c2nnc(S)n2-c2cccc3ccccc23)c(O)cc1O [Compound 177, 3-(2,4-Dihydroxy-5-methoxy-phenyl)-4-(naphthalen-1-yl)-5-mercapto-triazole]
< 3 | CCc1cc(-c2nnc(S)n2-c2cccc3c(O)cccc23)c(O)cc1O [Compound 178, 3-(2,4-Dihydroxy-5-ethyl-phenyl)-4-(5-hydroxy-naphthalen-1-yl)-5-mercapto-triazole]
10 to 100 | Oc1ccc(-c2nnc(S)n2-c2cccc(-c3ccccc3)c2)c(O)c1 [Compound 181, 3-(2,4-Dihydroxy-phenyl)-4-(biphenyl-3-yl)-5-mercapto-triazole]
10 to 100 | Cc1ccc(CO)cc1-n1c(S)nnc1-c1ccc(O)cc1O [Compound 182, 3-(2,4-Dihydroxy-phenyl)-4-(2-methyl-5-hydroxymethyl-phenyl)-5-mercapto-triazole]
3 to 10 | Oc1cc(O)c(-c2nnc(S)n2-c2cccc3ccccc23)cc1O [Compound 184, 3-(2,4,5-Trihydroxy-phenyl)-4-(naphthalene-1-yl)-5-mercapto-triazole]

Structure (SMILES) | IC50 [µM]
CC(=O)Oc1ccc(-c2nnc(SC(C)=O)n2-c2cccc3ccccc23)c(OC(C)=O)c1 [Compound 122, 3-(2,4-Diacetoxy-phenyl)-4-(naphthalen-1-yl)-5-(acetylsulfanyl)-triazole] | 3 to 10
CC(=O)Oc1ccc(-c2nnc(S)n2-c2cccc3ccccc23)c(OC(C)=O)c1 [Compound 123, 3-(2,4-Diacetoxy-phenyl)-4-(naphthalen-1-yl)-5-mercapto-triazole] | 10 to 100

From US20080004276A1, “Method for treating non-hodgkin's lymphoma” (priority 2006, published 2008)
